What was measured:
in vitro [1] = conditions: human, Caco-2
in vitro [2] = conditions: human, Caco-2; remark: listed apart in the source

Papp A→B (in vitro [1]) [×10⁻⁶ cm/s]	Papp (in vitro [2]) [×10⁻⁶ cm/s]	Compound
6.5	15.2	C=CC[C@H]1C(=O)N([C@@H](Cc2ccc3ccccc3c2)C(=O)NC)CCN1C(=O)[C@H](N)Cc1ccc(F)cc1
0.333	0.333	CNC(=O)[C@H](Cc1ccc2ccccc2c1)N1CCN(C(=O)[C@H](N)Cc2ccc(F)cc2)[C@@H](CCNC(=N)N)C1=O

— ChEMBL document CHEMBL1140090, “Discovery of orally bioavailable 1,3,4-trisubstituted 2-oxopiperazine-based melanocortin-4 receptor agonists as potential antiobesity agents” (J Med Chem, 2008)
